{"source": "patent US6495591B1", "about": "“Fungal efflux pump inhibitors” (Essential Therapeutics, Inc., priority 1997, dated 2002)", "experiment_in_all_cases": "microbe, parasite or virus in culture", "format_in_all_cases": "cell-based", "key": {"[1]": {"test_system": "C. albicans YEM-15 (CDR1 & CDR2 overexpressor)"}, "[2]": {"test_system": "C. glabrata YEM-19 (CgCDR overexpressor)"}, "[3]": {"test_system": "S. cerevisiae YEM-3 (no efflux pump introduced)", "conditions": "Saccharomyces cerevisiae, read-out: MIC Flu alone"}, "[4]": {"test_system": "S. cerevisiae YEM-37 (CDR2 introduced)"}, "[5]": {"test_system": "S. cerevisiae YEM-39 (CgCDR introduced)"}, "[6]": {"test_system": "S. cerevisiae YEM-40 (CgCDR, MF, introduced)"}, "[7]": {"test_system": "S. cerevisiae YEM-38 (FLU1 introduced)"}, "[8]": {"test_system": "C. albicans YEM-11 (BEN overexpressor)"}, "[9]": {"test_system": "C. albicans YEM-13 (BEN overexpressor)"}, "[10]": {"test_system": "C. albicans YEM-15 (CDR1 and CDR2 overexpressor)"}, "[11]": {"test_system": "C. albicans YEM-5 (CDR1 and CDR2 overexpressor)"}, "[12]": {"test_system": "S. cerevisiae YEM-1 (CDR1 introduced)", "conditions": "YEM-1, CDR1; milbemycin β1 […]"}, "[13]": {"test_system": "S. cerevisiae YEM-2 (BEN introduced)", "conditions": "YEM-2, BEN; milbemycin β1 […]"}, "[14]": {"conditions": "Saccharomyces cerevisiae, read-out: MIC Flu alone"}, "[15]": {"conditions": "Candida albicans, read-out: MIC Flu alone"}}, "data": [{"compound": "Milbemycin oxime [Compound 2]", "values": [{"measurement": "MIC of fluconazole, Flu + McOxm (2.5 μg/ml)", "setting": "[1]", "result": 0.25, "unit": "µg/mL"}, {"measurement": "MIC of fluconazole, Flu + McOxm (2.5 μg/ml)", "setting": "[2]", "result": 128, "unit": "µg/mL"}]}, {"compound": "OC(Cn1cncn1)(Cn1cncn1)c1ccc(F)cc1F", "note": "[Fluconazole, fluconazole, reference compound]", "values": [{"measurement": "MIC", "setting": "[3]", "result": 0.25, "unit": "µg/mL"}, {"measurement": "MIC", "setting": "[4]; [14]", "result": 2, "unit": "µg/mL"}, {"measurement": "MIC", "setting": "[5]; [14]", "result": 32, "unit": "µg/mL"}, {"measurement": "MIC", "setting": "[6]; [14]", "result": 16, "unit": "µg/mL"}, {"measurement": "MIC", "setting": "[7]; [14]", "result": 4, "unit": "µg/mL"}, {"measurement": "MIC", "setting": "[8]; [15]", "result": 32, "unit": "µg/mL"}, {"measurement": "MIC", "setting": "[9]; [15]", "result": 32, "unit": "µg/mL"}, {"measurement": "MIC", "setting": "[10]; [15]", "result": 128, "unit": "µg/mL"}, {"measurement": "MIC", "setting": "[11]; [15]", "result": "> 128", "unit": "µg/mL"}, {"measurement": "MIC", "setting": "[1]; [15]", "result": 128, "unit": "µg/mL"}, {"measurement": "MIC", "setting": "[2]; Nakaseomyces glabratus, read-out: MIC Flu alone", "result": "> 128", "unit": "µg/mL"}]}, {"compound": "CO[C@H]1C[C@@]2(O)/C(CO)=C/C=C/[C@H](C)C/C(C)=C/C[C@@H]3C[C@@H](C[C@]4(CC[C@H](C)[C@@H](C)O4)O3)OC(=O)[C@@H]2C=C1C", "note": "[Compound 6, Milbemycin β1]", "values": [{"measurement": "MIC of fluconazole, Flu + Mb ([…])", "setting": "[12]", "result": 0.25, "unit": "µg/mL"}, {"measurement": "MIC of fluconazole, Flu + Mb ([…])", "setting": "[4]; YEM-37, CDR2, milbemycin β1 […]", "result": 0.25, "unit": "µg/mL"}, {"measurement": "MIC of fluconazole, Flu + Mb ([…])", "setting": "[5]; YEM-39, CgCDR, milbemycin β1 […]", "result": 1, "unit": "µg/mL"}, {"measurement": "MIC of fluconazole, Flu + Mb ([…])", "setting": "[13]", "result": 128, "unit": "µg/mL"}, {"measurement": "MIC of fluconazole, Flu + Mb ([…])", "setting": "[6]; YEM-40, CgCDR (MF), milbemycin β1 […]", "result": 16, "unit": "µg/mL"}, {"measurement": "MIC of fluconazole, Flu + Mb ([…])", "setting": "[7]; YEM-38, FLU1, milbemycin β1 […]", "result": 4, "unit": "µg/mL"}, {"measurement": "MIC of fluconazole, Flu + Mb (2.5 μg/ml)", "setting": "[8]; YEM-11, milbemycin β1 2.5 μg/ml", "result": 32, "unit": "µg/mL"}, {"measurement": "MIC of fluconazole, Flu + Mb (2.5 μg/ml)", "setting": "[9]; YEM-13, milbemycin β1 2.5 μg/ml", "result": 32, "unit": "µg/mL"}, {"measurement": "MIC of fluconazole, Flu + Mb (2.5 μg/ml)", "setting": "[10]; YEM-15, milbemycin β1 2.5 μg/ml", "result": 1, "unit": "µg/mL"}, {"measurement": "MIC of fluconazole, Flu + Mb (2.5 μg/ml)", "setting": "[11]; YEM-5, milbemycin β1 2.5 μg/ml", "result": 8, "unit": "µg/mL"}]}]}
